Test results taken from PMC6920875, “Dithiocarbamate as a Valuable Scaffold for the Inhibition of Metallo-β-Lactmases” (Biomolecules, 2019).

Experiments:
IMP-1 = biological target: T1, IMP-1 (Serratia marcescens, UniProt P52699); test: biochemical; details: read-out: inhibition against IMP-1
T1 construct: made in house; host or cells: E. coli BL21 (DE3), plasmid pET26b-IMP-1
Protocol: (§1) The dithiocarbamates, MβLs and substrates samples were prepared with 30 mM Tris, pH 7.0. […] Enzymes and inhibitors were pre-incubated for 5 min before adding substrate. […] The IC50 values were nonlinearly fitted by plotting the average percentage inhibition against inhibitor concentration. The inhibition modes of DC1 to ImiS, NDM-1 and L1 were assayed by generating Lineweaver–Burk plots, and Ki values were obtained by fitting initial velocity versus substrate concentration at each inhibitor concentration, using SigmaPlot 12.0 (Systat Software Inc., San Jose, CA, USA).
(§2) To evaluate the inhibitory activity of the dithiocarbamates, we over-expressed and purified MβLs NDM-1, VIM-2 and IMP-1 (B1), ImiS (B2), and L1 (B3) from three subclasses as previously reported. The inhibition experiments were performed with an Agilent UV8453 spectrometer. […] The concentrations of inhibitors were varied between 0 and 200 μM. The initial reaction rates were determined in the absence and presence of inhibitors in triplicate, and the generated average values were recorded.

L1 [1] = biological target: T2, L1 (Stenotrophomonas maltophilia, UniProt P52700); test: biochemical; details: read-out: inhibition against L1
T2 construct: made in house; host or cells: E. coli BL21 (DE3), plasmid pET-26b-L1
T2 sequence (P52700 34-290): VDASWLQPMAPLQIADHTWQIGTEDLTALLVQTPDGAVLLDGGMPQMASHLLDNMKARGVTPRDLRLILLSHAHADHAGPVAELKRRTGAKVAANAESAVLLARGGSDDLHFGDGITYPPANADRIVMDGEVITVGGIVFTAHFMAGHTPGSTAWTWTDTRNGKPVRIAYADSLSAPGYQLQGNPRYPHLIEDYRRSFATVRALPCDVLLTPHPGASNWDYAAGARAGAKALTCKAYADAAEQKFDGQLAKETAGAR
Protocol: as §1, §2

NDM-1 [2] = biological target: T3, NDM-1 (Klebsiella pneumoniae, UniProt C7C422); test: biochemical; details: read-out: inhibition against NDM-1
T3 construct: made in house; host or cells: E. coli BL21 (DE3), plasmid pET26b-NDM-1
T3 sequence (C7C422 29-270 limits assumed): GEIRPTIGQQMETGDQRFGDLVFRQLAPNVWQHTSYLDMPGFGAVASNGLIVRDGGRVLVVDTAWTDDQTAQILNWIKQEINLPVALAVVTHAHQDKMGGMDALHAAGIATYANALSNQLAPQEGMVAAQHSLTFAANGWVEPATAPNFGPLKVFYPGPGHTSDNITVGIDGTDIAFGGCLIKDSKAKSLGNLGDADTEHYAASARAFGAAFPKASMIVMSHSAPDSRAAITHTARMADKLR
Protocol: as §1, §2

L1 [3] = biological target: T2, L1; test: Isothermal titration calorimetry (ITC) of MβL-catalysed substrate hydrolysis; format: biochemical; details: 100 nM enzyme, 1 mM cefazolin, inhibitor 0-200 μM, 25 °C
Protocol: (§3) Isothermal titration calorimetry (ITC) assays were performed on a Malvern MicroCal iTC 200 instrument (Malvern Instruments, Malvern, UK) at 25 °C, by a single injection mode. During ITC experiments the reference cell was filled with degassed water. The MβLs, substrates, and inhibitor DC1 were prepared with 50 mM Tris, pH 7.0. The concentration of MβLs used was in the range 100–200 nM, concentration of substrate was 1 mM, and concentrations of DC1 were varied between 0 and 200 µM. Before starting the measurement, the enzyme was pre-incubated with different concentrations of DC1 for 5 min, and then delivered into the sample cell (210 µL). The hydrolysis reaction in the absence of inhibitors was also determined as a control. The stirring rate of the syringe was set to 750 rpm. The system was equilibrated at the desired 25 °C. […] Heat flow was recorded as a function of time. Data were collected every 1 s until the signal reached the baseline and continued to be recorded for the length of time necessary to generate the final baseline.
(§4) Isothermal titration calorimetry (ITC) was also employed, to identify the inhibition of the dithiocarbamates on MβLs and study their thermodynamic behaviour. […]

NDM-1 [4] = biological target: T3, NDM-1; test: as above; format: biochemical; details: 150 nM enzyme, 1 mM cefazolin, inhibitor 0-200 μM, 25 °C
Protocol: as §3, §4

ImiS = biological target: T4, ImiS (Aeromonas veronii, UniProt O31272); test: as above; format: biochemical, Aeromonas veronii bv. sobria; details: 100 nM enzyme, 1 mM imipenem, inhibitor 0-200 μM, 25 °C
T4 construct: made in house; host or cells: E. coli BL21 (DE3), plasmid pET-26b-ImiS
T4 sequence (O31272 28-255 limits assumed): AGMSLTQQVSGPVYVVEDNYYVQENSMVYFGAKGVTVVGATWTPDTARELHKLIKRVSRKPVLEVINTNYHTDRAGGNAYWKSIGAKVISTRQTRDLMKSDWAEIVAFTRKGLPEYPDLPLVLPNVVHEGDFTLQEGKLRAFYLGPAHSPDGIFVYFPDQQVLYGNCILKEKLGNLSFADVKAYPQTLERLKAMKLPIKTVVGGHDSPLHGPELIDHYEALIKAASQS
Protocol: as §3, §4

T1 sequence (P52699 19-246 limits assumed): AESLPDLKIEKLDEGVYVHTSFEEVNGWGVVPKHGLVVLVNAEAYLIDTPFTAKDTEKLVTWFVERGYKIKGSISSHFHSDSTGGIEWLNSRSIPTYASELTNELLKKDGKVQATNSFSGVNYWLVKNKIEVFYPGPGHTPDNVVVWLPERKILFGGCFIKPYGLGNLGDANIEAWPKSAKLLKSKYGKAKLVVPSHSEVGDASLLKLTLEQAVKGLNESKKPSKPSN

O=C(NNC(=S)[S][K])c1ccccc1O [DC1]
inhibition at 10 µM (IMP-1): > 90%
inhibition at 8 µM (L1 [1]): > 90%
inhibition at 20 µM (NDM-1 [2]): > 90%
reversibility of inhibition of L1 by ITC (total heat Q constant) (L1 [3]): reversible
reversibility of inhibition of NDM-1 by ITC (total heat Q constant) (NDM-1 [4]): reversible
reversibility of inhibition of ImiS by ITC (total heat Q constant) (ImiS): reversible
